Results from publication PMC3434217, “Specificity Determinants of the Silkworm Moth Sex Pheromone” (PLoS ONE, 2012).

Key:
Format in all cases: cell-based
BmorOR1 [1] = target: T1, BmorOR1 (Bombyx mori, UniProt Q5WA61); assay: two-electrode voltage clamp in Xenopus oocytes expressing BmorOR1 and BmorOrco, dose-response
T1 construct: gene BmOR-1; full-length; with BmorOrco
T1 sequence (Q5WA61 1-430): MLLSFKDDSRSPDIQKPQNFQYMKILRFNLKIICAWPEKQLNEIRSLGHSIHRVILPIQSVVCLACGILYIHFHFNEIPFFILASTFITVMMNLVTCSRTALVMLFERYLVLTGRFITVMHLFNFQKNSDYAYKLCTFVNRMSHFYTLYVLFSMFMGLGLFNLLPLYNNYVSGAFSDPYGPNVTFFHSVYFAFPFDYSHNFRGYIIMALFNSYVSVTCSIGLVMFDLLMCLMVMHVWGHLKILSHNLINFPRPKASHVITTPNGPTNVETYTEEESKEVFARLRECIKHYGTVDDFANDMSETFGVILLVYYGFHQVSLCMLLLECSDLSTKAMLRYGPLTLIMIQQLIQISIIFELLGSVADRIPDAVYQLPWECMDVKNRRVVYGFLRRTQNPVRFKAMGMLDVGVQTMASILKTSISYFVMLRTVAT
T1 sequence (Q7YT34 1-472 partner): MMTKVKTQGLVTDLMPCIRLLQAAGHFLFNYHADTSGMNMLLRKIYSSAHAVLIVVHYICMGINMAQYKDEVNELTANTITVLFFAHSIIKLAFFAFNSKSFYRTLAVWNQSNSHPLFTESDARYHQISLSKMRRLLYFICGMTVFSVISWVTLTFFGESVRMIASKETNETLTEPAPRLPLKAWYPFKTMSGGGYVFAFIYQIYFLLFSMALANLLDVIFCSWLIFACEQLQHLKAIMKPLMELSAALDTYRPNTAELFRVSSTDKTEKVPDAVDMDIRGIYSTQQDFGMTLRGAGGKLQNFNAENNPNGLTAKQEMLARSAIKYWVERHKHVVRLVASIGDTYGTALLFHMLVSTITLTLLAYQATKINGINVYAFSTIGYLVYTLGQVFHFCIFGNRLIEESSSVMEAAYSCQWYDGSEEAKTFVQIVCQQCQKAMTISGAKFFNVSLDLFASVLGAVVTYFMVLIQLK

BmorOR1 [2] = target: T1, BmorOR1; assay: two-electrode voltage clamp in Xenopus oocytes expressing BmorOR1 and BmorOrco (perfusion)
BmorOR1 [3] = target: T1, BmorOR1; assay: two-electrode voltage clamp in Xenopus oocytes expressing BmorOR1 and BmorOrco (injection, source dose)

SMILES	EC50 (BmorOR1 [1]) [µM]	further results
CCC/C=C\C=C\CCCC/C=C\CCCO [compound 11, (4Z,10E,12Z)-hexadecatrien-1-ol]	13	–
CCC/C=C\C=C\CCCCCCCCCO [compound 1, (10E,12Z)-hexadecadien-1-ol]	–	EC50 (BmorOR1 [2]): 0.0454 µM
CCC/C=C\C=C\CCCCC#CCCCO [compound 10]	17	–
CCC/C=C\C=C\CCCCCCCCC=O [bombykal]	–	EC50 (BmorOR1 [3]): 9.6 µM
